Measured values: patent US10570168B2, “2′ and/or 5′ amino-acid ester phosphoramidate 3′-deoxy adenosine derivatives as anti- cancer compounds” (NuCana plc, priority 2014, dated 2020)

Key:
Type in all cases: cell-based
RL = assay: Solid tumour and haematological malignancy assay (CellTiterGlo); conditions: Homo sapiens, 72 h
Protocol: (§1) In vitro viability assay were performed to assess the effects of compounds on cell viability in selected cell lines over 72 hr using the CellTiterGlo (CTG, Promega-G7573) assay. The tests were performed in duplicates with treatment of compounds at 9 points, 3.16 folds titration in 96 well plates over ˜72 hr. The compound starting concentrations were 198 mM. Cell viability assay using CellTiterGlo in 96-well plate were performed. Compound treatment 72 hrs, standard growth conditions, duplicates. Compounds were dissolved to 40 mM with thawed […]. Compounds were serially diluted at 3.16 fold in thawed DMSO, and warmed to 37° C. before being dissolved in media (20 μl+200 μl). After compounds were dissolved in media, media containing compounds were warmed to 37° C. in incubator and then compounds in media were added to cell plates ([…]) in duplicates. The compounds' final concentrations were from 198M to 19.9 nM. All compound solubilities were checked and recorded again, then the plates were transferred to CO2 tissue culture incubator immediately and incubated for 3 days. DMSO final concentration is 0.5%.

MOLT-4 = assay: as above; conditions: Homo sapiens, MOLT-4, 72 h
Protocol: as §1

SW620 = assay: as above; conditions: Homo sapiens, SW-620, 72 h
Protocol: as §1

RPMI-8226 = assay: as above; conditions: Homo sapiens, RPMI-8226, 72 h
Protocol: as §1

HS445 = assay: as above; conditions: Hs 445, 72 h
Protocol: as §1

BxPC-3-Luc = assay: as above; conditions: 72 h, read-out: EC50 (absolute EC50)
Protocol: as §1

NCI-H929 = assay: as above; conditions: Homo sapiens, NCI-H929, 72 h
Protocol: as §1

THP-1 = assay: as above; conditions: Homo sapiens, THP-1, 72 h
Protocol: as §1

MV4-11 = assay: as above; conditions: Homo sapiens, MV4-11, 72 h
Protocol: as §1

Z138 = assay: as above; conditions: Homo sapiens, Z-138, 72 h
Protocol: as §1

KG-1 = assay: as above; conditions: Homo sapiens, KG-1, 72 h; for Emax: read-out: MI %; for IC50: read-out: IC50 (absolute IC50)
Protocol: as §1, with “The tests were performed in duplicates with treatment of compounds at 9 points, 3.16 folds titration in 96 well plates over ˜72 hr. The compound starting concentrations were 198 mM.” left out, “Compounds were serially diluted at 3.16 fold in thawed DMSO, and warmed to 37° C. before being dissolved in media (20 μl+200 μl).” left out, “The compounds' final concentrations were from 198M to 19.9 nM.” left out

HepG2 = assay: as above; conditions: Homo sapiens, HepG2, 72 h; for Emax: read-out: MI %; for IC50: read-out: IC50 (absolute IC50)
Protocol: as §1, with “The tests were performed in duplicates with treatment of compounds at 9 points, 3.16 folds titration in 96 well plates over ˜72 hr. The compound starting concentrations were 198 mM.” left out, “Compounds were serially diluted at 3.16 fold in thawed DMSO, and warmed to 37° C. before being dissolved in media (20 μl+200 μl).” left out, “The compounds' final concentrations were from 198M to 19.9 nM.” left out

HL-60 = assay: as above; conditions: Homo sapiens, HL-60, 72 h; for Emax: read-out: MI %; for IC50: read-out: IC50 (absolute IC50)
Protocol: as §1, with “The tests were performed in duplicates with treatment of compounds at 9 points, 3.16 folds titration in 96 well plates over ˜72 hr. The compound starting concentrations were 198 mM.” left out, “Compounds were serially diluted at 3.16 fold in thawed DMSO, and warmed to 37° C. before being dissolved in media (20 μl+200 μl).” left out, “The compounds' final concentrations were from 198M to 19.9 nM.” left out

CCRFCEM = assay: as above; conditions: Homo sapiens, CCRF-CEM, 72 h; for Emax: read-out: MI %; for IC50: read-out: IC50 (absolute IC50)
Protocol: as §1, with “The tests were performed in duplicates with treatment of compounds at 9 points, 3.16 folds titration in 96 well plates over ˜72 hr. The compound starting concentrations were 198 mM.” left out, “Compounds were serially diluted at 3.16 fold in thawed DMSO, and warmed to 37° C. before being dissolved in media (20 μl+200 μl).” left out, “The compounds' final concentrations were from 198M to 19.9 nM.” left out

MiaPaCa-2 = assay: as above; conditions: Homo sapiens, MIA PaCa-2, 72 h; for Emax: read-out: MI %; for IC50: read-out: IC50 (absolute IC50)
Protocol: as §1, with “The tests were performed in duplicates with treatment of compounds at 9 points, 3.16 folds titration in 96 well plates over ˜72 hr. The compound starting concentrations were 198 mM.” left out, “Compounds were serially diluted at 3.16 fold in thawed DMSO, and warmed to 37° C. before being dissolved in media (20 μl+200 μl).” left out, “The compounds' final concentrations were from 198M to 19.9 nM.” left out

HT29 = assay: as above; conditions: Homo sapiens, HT-29, 72 h; for Emax: read-out: MI %; for IC50: read-out: IC50 (absolute IC50)
Protocol: as §1, with “The tests were performed in duplicates with treatment of compounds at 9 points, 3.16 folds titration in 96 well plates over ˜72 hr. The compound starting concentrations were 198 mM.” left out, “Compounds were serially diluted at 3.16 fold in thawed DMSO, and warmed to 37° C. before being dissolved in media (20 μl+200 μl).” left out, “The compounds' final concentrations were from 198M to 19.9 nM.” left out

K562 = assay: as above; conditions: Homo sapiens, K562, 72 h; for Emax: read-out: MI %; for IC50: read-out: IC50 (absolute IC50)
Protocol: as §1, with “The tests were performed in duplicates with treatment of compounds at 9 points, 3.16 folds titration in 96 well plates over ˜72 hr. The compound starting concentrations were 198 mM.” left out, “Compounds were serially diluted at 3.16 fold in thawed DMSO, and warmed to 37° C. before being dissolved in media (20 μl+200 μl).” left out, “The compounds' final concentrations were from 198M to 19.9 nM.” left out

HEL92.1.7 = assay: as above; conditions: Homo sapiens, HEL 92.1.7, 72 h; for Emax: read-out: MI %; for IC50: read-out: IC50 (absolute IC50)
Protocol: as §1, with “The tests were performed in duplicates with treatment of compounds at 9 points, 3.16 folds titration in 96 well plates over ˜72 hr. The compound starting concentrations were 198 mM.” left out, “Compounds were serially diluted at 3.16 fold in thawed DMSO, and warmed to 37° C. before being dissolved in media (20 μl+200 μl).” left out, “The compounds' final concentrations were from 198M to 19.9 nM.” left out

MCF7 = assay: as above; conditions: Homo sapiens, MCF7, 72 h; for Emax: read-out: MI %; for IC50: read-out: IC50 (absolute IC50)
Protocol: as §1, with “The tests were performed in duplicates with treatment of compounds at 9 points, 3.16 folds titration in 96 well plates over ˜72 hr. The compound starting concentrations were 198 mM.” left out, “Compounds were serially diluted at 3.16 fold in thawed DMSO, and warmed to 37° C. before being dissolved in media (20 μl+200 μl).” left out, “The compounds' final concentrations were from 198M to 19.9 nM.” left out

KG1a cells = assay: Annexin V/propidium iodide in vitro apoptosis assay (LD50); conditions: 72 h
Protocol: The KG1a cell line was maintained in RPMI medium (Invitrogen, Paisley, UK) supplemented with 100 units/ml penicillin, 100 μg/ml streptomycin and 20% foetal calf serum. Cells were subsequently aliquoted (10^5 cells/100 μl) into 96-well plates and were incubated at 37° C. in a humidified 5% carbon dioxide atmosphere for 72 h in the presence of nucleoside analogues and their respective proTides at concentrations that were experimentally determined for each series of compounds. In addition, control cultures were carried out to which no drug was added. Cells were subsequently harvested by centrifugation and were analyzed by flow cytometry using the Annexin V assay.
Cultured cells were harvested by centrifugation and then resuspended in 195 μl of calcium-rich buffer. Subsequently, 5 μl of Annexin V (Caltag Medsystems, Botolph Claydon, UK) was added to the cell suspension and cells were incubated in the dark for 10 mins prior to washing. Cells were finally resuspended in 190 μl of calcium-rich buffer together with 10 μl of propidium iodide. Apoptosis was assessed by dual-colour immunofluorescent flow cytometry as described previously.
The data obtained in these experiments were evaluated using one way ANOVA. […] LD50 values were calculated from the non-linear regression and line of best-fit analysis of the sigmoidal dose-response curves. […]

[1] = tested on: leukaemic stem cell (LSC) compartment within the KG1a cell line; assay: Immunophenotypic identification of the leukaemic stem cell compartment; conditions: 72 h, for compound A at 1 mM and above
Protocol: KG1a cells were cultured for 72 h in the presence of a wide range of concentrations of each compound assayed. Cells were then harvested and labelled with a cocktail of anti-lineage antibodies (PE-cy7), anti-CD34 (FITC), anti-CD38 (PE) and anti-CD123 (PERCP cy5). The sub-population expressing a LSC phenotype were subsequently identified and were expressed as a percentage of all viable cells left in the culture. The percentages of stem cells remaining were then plotted on a dose-response graph and the effects of the compounds were compared with each other, and with the parent nucleoside.
The data obtained in these experiments were evaluated using one way ANOVA. All data was confirmed as Gaussian or a Gaussian approximation using the omnibus K2 test. LD50 values were calculated from the non-linear regression and line of best-fit analysis of the sigmoidal dose-response curves. All statistical analyses were performed using Graphpad Prism 6.0 software (Graphpad Software Inc., San Diego, Calif.).

CC(NP(=O)(OC[C@@H]1C[C@@H](O)[C@H](n2cnc3c(N)nc(Cl)nc32)O1)Oc1cccc2ccccc12)C(=O)OCc1ccccc1 (stereo in doubt) [S, (2R)-benzyl 2-((((2S,4R,5R)-5-(6-amino-2-chloro-9H-purin-9-yl)-4-hydroxytetrahydrofuran-2-yl)methoxy)(naphthalen-1-yloxy)phosphorylamino)propanoate]
EC50 (RL; read-out: EC50 (absolute EC50)): 5 to 15 µM
Emax (RL; read-out: MI %): 100%
EC50 (MOLT-4; read-out: EC50 (absolute EC50)): 5 to 15 µM
Emax (MOLT-4; read-out: MI %): 100%
EC50 (SW620; read-out: EC50 (absolute EC50)): 15 to 100 µM
Emax (SW620; read-out: MI %): 92.1%
EC50 (RPMI-8226; read-out: EC50 (absolute EC50)): 15 to 100 µM
Emax (RPMI-8226; read-out: MI %): 99.6%
EC50 (HS445; read-out: EC50 (absolute EC50)): 15 to 100 µM
Emax (HS445; read-out: MI %): 106%
EC50 (BxPC-3-Luc): 15 to 100 µM
EC50 (NCI-H929; read-out: EC50 (absolute EC50)): 5 to 15 µM
Emax (NCI-H929; read-out: MI %): 102%
EC50 (THP-1; read-out: EC50 (absolute EC50)): 15 to 100 µM
Emax (THP-1; read-out: MI %): 97%
EC50 (MV4-11; read-out: EC50 (absolute EC50)): 5 to 15 µM
Emax (MV4-11; read-out: MI %): 101%
EC50 (Z138; read-out: EC50 (absolute EC50)): 15 to 100 µM
Emax (Z138; read-out: MI %): 90.2%
EC50 (KG-1; read-out: EC50 (absolute EC50)): 15 to 100 µM
Emax (KG-1): 99%
EC50 (HepG2; read-out: EC50 (absolute EC50)): 15 to 100 µM
Emax (HepG2): 84.6%
EC50 (HL-60; read-out: EC50 (absolute EC50)): 5 to 15 µM
Emax (HL-60): 102%
EC50 (CCRFCEM; read-out: EC50 (absolute EC50)): 5 to 15 µM
Emax (CCRFCEM): 100%
EC50 (MiaPaCa-2; read-out: EC50 (absolute EC50)): 15 to 100 µM
Emax (MiaPaCa-2): 98.2%
EC50 (HT29; read-out: EC50 (absolute EC50)): 15 to 100 µM
Emax (HT29): 88.1%
EC50 (K562; read-out: EC50 (absolute EC50)): 15 to 100 µM
Emax (K562): 101%
EC50 (HEL92.1.7; read-out: EC50 (absolute EC50)): 5 to 15 µM
Emax (HEL92.1.7): 100%
EC50 (MCF7; read-out: EC50 (absolute EC50)): 15 to 100 µM
Emax (MCF7): 101%

Nc1nc(F)nc2c1ncn2[C@@H]1O[C@H](CO)C[C@H]1O [2-F-Cordycepin, 3′deoxy-2-fluoroadenosine, reference compound]
IC50 (KG-1): 5 to 15 µM
Emax (KG-1): 99%
IC50 (HepG2): 15 to 100 µM
Emax (HepG2): 82%
IC50 (HL-60): 5 to 15 µM
Emax (HL-60): 96%
IC50 (CCRFCEM): 15 to 100 µM
Emax (CCRFCEM): 101%
IC50 (MiaPaCa-2): 15 to 100 µM
Emax (MiaPaCa-2): 100%
IC50 (HT29): 15 to 100 µM
Emax (HT29): 73%
IC50 (K562): 15 to 100 µM
Emax (K562): 97%
IC50 (HEL92.1.7): 5 to 15 µM
Emax (HEL92.1.7): 99%
IC50 (MCF7): 15 to 100 µM
Emax (MCF7): 97%
in vitro drug sensitivity / potency (LD50 comparison, FIG. 1) (KG1a cells): significantly more potent than Cordycepin

CCCCCCOC(=O)[C@H](C)NP(=O)(OC[C@@H]1C[C@@H](O)[C@H](n2cnc3c(N)nc(F)nc32)O1)Oc1ccccc1 (stereo partly drawn) [R, (2S)-hexyl 2-(((((2S,4R,5R)-5-(6-amino-2-fluoro-9H-purin-9-yl)-4-hydroxytetrahydrofuran-2-yl)methoxy)(phenoxy)phosphoryl)amino)propanoate]
IC50 (KG-1): 0.1 to 5 µM
Emax (KG-1): 96%
IC50 (HepG2): 5 to 15 µM
Emax (HepG2): 82%
IC50 (HL-60): 0.1 to 5 µM
Emax (HL-60): 100%
IC50 (CCRFCEM): 0.1 to 5 µM
Emax (CCRFCEM): 100%
IC50 (MiaPaCa-2): 5 to 15 µM
Emax (MiaPaCa-2): 98%
IC50 (HT29): 15 to 100 µM
Emax (HT29): 92%
IC50 (K562): 5 to 15 µM
Emax (K562): 96%
IC50 (HEL92.1.7): 0.1 to 5 µM
Emax (HEL92.1.7): 99%
IC50 (MCF7): 0.1 to 5 µM
Emax (MCF7): 87%
LSC targeting compared with the parent nucleoside [1]: significantly improved when compared with the parental nucleoside
